Earlier results on 1 substance are cited in patent US20240139105A1, “PHARMACEUTICAL COMPOSITION CONTAINING GHRP-6” (CENTRO DE INGENIERÍA GENÉTICA Y BIOTECNOLOGÍA, priority 2021, published 2024).

The test system of one data set is humans. To be noted: intravenous route.
The subject of the next data set is pigs. The note with it: model of acute myocardial infarction in pigs.
For data set [1], the system named is Mongolia gerbil (Meriones unguiculatus). The note with it: model of ischemic cerebral infarction, in combination with EGF.

Where no end group is shown, it is not given here. [ ]: non-standard residue; d: D form.

On to “His-Trp-Ala-Trp-Phe-Lys-NH2 (H[dW]AW[dF]K-NH2) [GHRP-6, synthetic peptide, growth hormone secretagogue; the API of all formulations]”, for which the “Doses referred as safe in humans” value in the data set with humans is at most 2 µg/kg. The Therapeutic dosage reported in the data set on pigs was 400 µg/kg; in data set [1], “around 600 μg/kg”.
